Reference: US20240165055A1, “TREATMENT” (Verona Pharma PLC, priority 2022, published 2024)

Test system: patients with moderate to severe COPD
Assay: Multi-centre, randomized, double-blind, placebo-controlled clinical study of nebulised ensifentrine in COPD (spirometry, FEV1)
Format: in vivo
Details: 3 mg BID by nebuliser
Description: A clinical study was conducted to determine the efficacy of ensifentrine in treating COPD compared with placebo. Ensifentrine was administered by nebuliser at a dose of 3 mg twice daily (BID) for 24 weeks. The study was a multi-centre, randomized, double-blind, parallel-group, placebo-controlled trial with around 800 patients and 5:3 randomization.
The study population included patients aged 40-80 years with moderate to severe COPD (FEV130%-70% p.n., FEVi/forced vital capacity [FVC] ratio <0.7, with mMRC ≥2). The randomization stratified (a) the use of stable background maintenance LAMA or LABA therapy use (approx. 50%. yes or no) and (b) cigarette smoking (current or former). Inhaled corticosteroid (ICS) maintenance therapy was permitted in up to 20% of patients under certain provisions.
The primary endpoint of the study was change from baseline in average FEV1 area under the curve (AUC)0-12h post-dose at week 12. Secondary endpoints of the study included: peak FEV1 over 4 hours post-dose at Week 12; morning trough FEV1 at Week 12; and other endpoints including moderate/severe COPD exacerbations frequency over 24 Weeks.
Baseline FEV1 is the mean of the two measurements taken before study medication on the day of first dosing, i.e. ≤40 minutes and just prior to dosing, pre-dose on day 1.
Average FEV1 AUCO-12h is defined as area under the curve over 12 hours of the FEV1, divided by 12 hours.
Morning trough FEV1 at Week 12 is defined as the FEVi assessed at 11.5 to 12 hours following the prior evening dose.
The investigational product and placebo were provided in 2.5 mL unit dose format in an ampule and administered via a nebuliser.

## COc1cc2c(cc1OC)-c1c/c(=N\c3c(C)cc(C)cc3C)n(CCNC(N)=O)c(=O)n1CC2 [Ensifentrine]
Week 12, FEV1 at 11.5 to 12 hours following the prior evening dose
  Morning Trough FEV1 Week 12: CFB Least Squares Mean, mL (95% CI): 6.3 (−12.3, 24.9) mL
Week 12, versus placebo
  Morning Trough FEV1 Week 12: Placebo-corrected CFB LS Mean Diff., mL (95% CI): 48.9 (18.3, 79.5) mL
All subgroups
  Improvement in lung function in all subgroups (average FEV1 (AUC)0-12h at Week 12), result in words: All subgroups showed improvement in lung function with ensifentrine that was statistically significant
Week 12
  Morning trough FEV1 at week 12, result in words: statistically significant effect
